Source: US20200048208A1, “TREATMENT OF DISEASES OR DISORDERS CAUSED BY INDUCED NFkB TRANSCRIPTIONAL ACTIVITY” (Senex Biotechnology, Inc., priority 2011, published 2020)
“Also recorded” adds a separate entry of the source. Non-standard residues stand in square brackets, D forms with d. Residues, ends and D or L forms follow the SMILES beside them. *: point of attachment. Nva = CCC[C@H](N)C(=O)O; Cbz = O=C(OCc1ccccc1)*

Columns and labels:
[1] = clinical experience (Cavaletti and Jakubowiak, 2010); cited from earlier work
[2] = system: TNFα-induced NFκB-dependent transcription; assay: NFkB-GFP reporter flow cytometry after inhibitor and TNFα (GFP fluorescence); format: cell-based, human; conditions: HT1080-derived reporter, inhibitor 3 hours then 18 hours TNFα (10 ng/ml)
Protocol: (§1) We have compared Senexin A to two known proteasome-targeting NFκB inhibitors, N-tosyl-L-phenylalanine chloromethyl ketone (TPCK) (Ha et al., 2009) and MG115 in regard to their cytotoxicity and their effect on the nuclear translocation of active NFκB. In the experiment shown in FIG. 7, the HT1080-derived NFkB-GFP reporter cell line was seeded in 60 mm plates at 1.5×10^5 cells per plate and cultured overnight before being treated with different NFκB inhibitors at the concentrations indicated in FIG. 7 for 3 hours, followed by 18 hours TNFα (10 ng/ml) stimulation. The treated cells were trypsinized, resuspended in PBS, mixed with 5 μg/ml propidium iodide (PI), and analyzed using LSRII flow cytometer (BD Biosciences) for GFP fluorescence (left panel) and the percentage of dead (PI-positive) cells (right panel).

[3] = system: HT1080-derived NFkB-GFP reporter cell line; assay: Propidium iodide flow cytometry for dead cells; format: cell-based, human; conditions: inhibitor 3 hours then 18 hours TNFα (10 ng/ml)
Protocol: as §1

p65 = assay: TransAM NFκB DNA-binding ELISA of nuclear extracts, p65; format: cell-based, human; conditions: HT1080 and HEK293 cells, untreated and TNFα-treated; 5 μM Senexin A, 60 μM TPCK, 10 μM MG115 for 3 hours
Excerpt: (§2) Given the role of NFxB in the induction of transcription by p21 (Poole et al., 2004), we have tested SNX2 for the ability to decrease the amount of active NFκB in the nucleus, a general assay for different known classes of NFκB inhibitors. As shown in FIG. 8 of US patent publication 20080033000, we have found, using ACTIVE MOTIF TransAM™ NFκB p65 Chemi and NFκB p50 Chemi Transcription Factor Assay Kits, that SNX2 had no effect on the amount of p50 or p65 NFκB subunits binding to NFκB consensus sequence in nuclear extracts from HT 1080 cells, untreated or treated with NFκB inducer TNFα.
(§3) The DNA-binding activities of nuclear NFκB proteins were measured by the ELISA-based TransAM NFκB Family Transcriptional Factor Assay Kit (Active Motif) following manufacturer's protocol. HT1080 and HEK293 cells were pretreated with inhibitors (5 μM Senexin A, 60 μM TPCK, 10 μM MG115) for 3 hours and then treated with 10 ng/ml TNF for 30 minutes before nuclear extract preparation with Nuclear Extraction Kit (Active Motif). Nuclear extracts were assayed at 5 μg/well for p65 and 2.5 μg/well for p50 DNA binding.

p50 = assay: TransAM NFκB DNA-binding ELISA of nuclear extracts, p50; format: cell-based, human; conditions: HT1080 and HEK293 cells, untreated and TNFα-treated; 5 μM Senexin A, 60 μM TPCK, 10 μM MG115 for 3 hours
Excerpt: as §2, §3

NFκB-dependent promoter [4] = assay: NFκB-GFP reporter assay, induction by IPTG-inducible p21 (flow cytometric); format: cell-based, human; conditions: HT1080 p21-9 derived NFκB-GFP reporter cells, 50 mM IPTG for 72 hrs, different concentrations
Protocol: (§4) We have tested the effects of SNX2-class compounds on NFκB transcriptional activity. These assays were conducted with a reporter cell line that we derived from HT1080 p21-9 cells carrying IPTG-inducible p21 (Chang et al., 1999) after transduction with Cignal Lenti NFκB Reporter lentivirus (SA Biosciences), which expresses GFP from a NFκB-dependent minimal promoter. The reporter cell line was then selected for a high basal level of NFκB-dependent GFP expression, which was further increased by TNFα or upon p21 induction by IPTG.

NFκB-dependent promoter [5] = assay: NFκB-GFP reporter assay, TNFα induction (96-well fluorometric); format: cell-based, human; conditions: HT1080-based NFκB-GFP reporter cells
Protocol: as §4
The ability of SNX2-class compounds to prevent the induction of the NFκB-dependent promoter by p21 was not surprising, since these compounds were identified by their ability to prevent p21-mediated induction of another promoter (CMV) (Chang et al., 2008), and NFκB stimulation by p21 was already known.

NFκB-inducible genes [6] = assay: QPCR of NFκB-inducible genes in TNFα-treated HEK293 cells; format: cell-based, human; conditions: HEK293, 5 μM pretreatment 1 hour, 10 ng/ml TNFα 30 minutes
Protocol: The cells were seeded in 6-well plates at 6×10^5 cells/well in media containing 3% serum and cultured overnight. The next day, cells were pretreated with 5 μM Senexin A or with DMSO vehicle control for 1 hour and treated with or without 10 ng/ml TNFα for 30 minutes. Cells were then lysed for total RNA purification with the RNeasy Kit (Qiagen). For QPCR analysis of NFκB-inducible genes, cDNA was prepared using Maxima First Strand cDNA Synthesis Kit (Thermo Scientific/Fermentas, K1641) and gene expression was measured by QPCR with gene-specific primers, with RPL13A as a normalization standard, using Maxima SYBR Green/ROX qPCR Master Mix (Thermo Scientific/Fermentas, K0223) and ABI Prism 7900HT Detection system (Life technologies).

NFκB-inducible genes [7] = assay: QPCR of NFκB-inducible genes in TNFα-treated wild-type HCT116 cells; format: cell-based, human; conditions: wild-type HCT116, 5 μM pretreatment 1 hour, 10 ng/ml TNFα 30 minutes
Protocol: (§5) We have verified the effect of CDK8/19 inhibition on NFκB-mediated induction of transcription in human HCT116 colon carcinoma cells, where we also used the availability of a p21−/− derivative of this cell line (Waldman et al., 1996) to determine if this effect depends on p21. The wild-type and p21−/− HCT116 cells were seeded in 6-well plates at 6×10^5 cells/well in media with 10% serum and cultured overnight. The next day, cells were pretreated with 5 μM Senexin A or with DMSO vehicle control for 1 hour and treated with or without 10 ng/ml TNFα for 30 minutes. Cells were then lysed for RNA purification and QPCR analysis of NFκB-inducible genes.

NFκB-inducible genes [8] = assay: QPCR of NFκB-inducible genes in TNFα-treated p21−/− HCT116 cells; format: cell-based, human; conditions: p21−/− HCT116, 5 μM pretreatment 1 hour, 10 ng/ml TNFα 30 minutes
Protocol: as §5

[9] = system: induction of transcription by p21; conditions: at concentrations that inhibit NFκB (Poole et al., 2004); cited from earlier work
[10] = bone loss therapy (Hiligsmann and Reginster, 2010); cited from earlier work

**Q.** Which Bortezomib-induced peripheral neuropathy [1] does the source give for `CC(C)C[C@H](NC(=O)[C@H](Cc1ccccc1)NC(=O)c1cnccn1)B(O)O` [Bortezomib] here?
**A.** 37-44 % of patients

**Q.** With `CCC[C@@H](C=O)NC(=O)[C@H](CC(C)C)NC(=O)[C@H](CC(C)C)NC(=O)OCc1ccccc1` [MG115, reference compound] (Cbz-Leu-Leu-[Nva]-aldehyde) as the molecule, how does the “TNFα-induced NFκB-dependent transcription (GFP fluorescence)” value [2] read?
**A.** inhibited TNFα-induced NFκB-dependent transcription

**Q.** And the “fraction of dead (PI-positive) cells” value [3]?
**A.** strongly increased the fraction of dead cells

**Q.** And the “amount of active p65 (DNA binding) in nuclear extracts” value (p65)?
**A.** strongly decreased

**Q.** What about the “amount of active p50 (DNA binding) in nuclear extracts” value (p50) of the same molecule?
**A.** strongly decreased

**Q.** Which results are given for `N#Cc1ccc2ncnc(NCCc3ccccc3)c2c1` [SNX2-1-53]?
**A.** induction of the NFκB-dependent promoter by p21 (GFP expression) (NFκB-dependent promoter [4]): strongly inhibited; induction of the NFκB-dependent promoter by p21 (GFP expression) (NFκB-dependent promoter [4]; listed as Senexin A): dose dependent inhibition; TNFα-induced NFκB activity (GFP expression normalized by Hoechst 33342) (NFκB-dependent promoter [5]; 10 ng/ml TNFα for 18 hrs): inhibited TNFα-induced NFκB activity; basal NFκB activity (normalized GFP expression) (NFκB-dependent promoter [5]; untreated (no TNFα)): did not significantly inhibit; induction of NFκB-regulated genes by TNFα (NFκB-inducible genes [6]): drastically inhibited; TNFα-induced gene expression (NFκB-inducible genes [7]): inhibited TNFα-induced gene expression to the same degree; TNFα-induced gene expression (NFκB-inducible genes [8]): inhibited TNFα-induced gene expression to the same degree; TNFα-induced NFκB-dependent transcription (GFP fluorescence) ([2]; listed as Senexin A): inhibits NFκB activation; also recorded: inhibited TNFα-induced NFκB-dependent transcription; fraction of dead (PI-positive) cells ([3]; listed as Senexin A): minimal effects on cell viability; also recorded: did not; amount of active p65 (DNA binding) in nuclear extracts (p65): does not block; also recorded: indistinguishable from the control; amount of active p50 (DNA binding) in nuclear extracts (p50): does not block; also recorded: indistinguishable from the control

**Q.** Which “induction of transcription by p21” value [9] does the source give for `CC1=C(CC(=O)O)c2cc(F)ccc2/C1=C\c1ccc([S+](C)[O-])cc1` (stereo not shown) [Sulindac] here?
**A.** inhibited

**Q.** Which “TNFα-induced NFκB-dependent transcription (GFP fluorescence)” value [2] does the source give for “N-tosyl-L-phenylalanine chloromethyl ketone [TPCK, reference compound]” here?
**A.** inhibited TNFα-induced NFκB-dependent transcription

**Q.** And the “fraction of dead (PI-positive) cells” value [3]?
**A.** strongly increased the fraction of dead cells

**Q.** What about the “amount of active p65 (DNA binding) in nuclear extracts” value (p65) of the same molecule?
**A.** strongly decreased

**Q.** And the “amount of active p50 (DNA binding) in nuclear extracts” value (p50)?
**A.** strongly decreased

**Q.** With denosumab as the molecule, how does the safety profile [10] read?
**A.** good safety profile
